A short description of data set [1]: Cytotoxicity assay, panel of five human cell lines. The class given is cell-based. As to conditions: HEK293, HepG2, THP-1, Jurkat E6.1 and LX2 cells; summary in text across panel of five human cell lines. The method, then:
(§1) To evaluate in vitro cytotoxicity and support its potential application in inflammatory and fibrotic disease models, the following panel of cell lines, representing the relevant biological systems, was used: HEK293, HepG2, THP1, Jurkat E6.1, and LX2. HEK293, HepG2, and Jurkat E6.1 cells were seeded at 400,000 cells/mL, THP1 cells at 500,000 cells/mL, and LX2 cells at 200,000 cells/mL in 96-well plates (cell culture-treated, VWR) in 100 μL/well. Cells were treated with the tested compounds in a serial dilution (300, 100, 33.3, 11.1, and 3.7 μM) for 24 h. Untreated cells served as negative controls to establish the baseline viability threshold. Cell viability was assessed using a viability dye (Zombie Violet Fixable Viability Kit, BioLegend) following the manufacturer’s instructions and analyzed by flow cytometry (see below).
(§2) Cells or beads from screening assays prepared for flow cytometry were analyzed by the CytoFlex S instrument (Beckman Coulter). Data acquisition was performed using CytExpert software (v2.5, Beckman Coulter). Debris was excluded by forward and side scatter gating, followed by doublet exclusion. Data were analyzed using FlowJo software (v10, BD Biosciences).

A short description of data set [2]: Microsomal stability assay, rat liver microsomes. The format is in vitro ADME. The following applies: pooled liver microsomes, pH 7.4, rat liver microsomes 0.5 mg/mL, NADPH. The method, then: (§3) Microsomal stability was determined using 0.5 mg/mL of pooled human, mouse, or rat liver microsomes (Thermo Fisher Scientific) in 90 mM TRIS-Cl buffer (pH 7.4) containing 2 mM NADPH and 2 mM MgCl2. Test compounds (10 μM) were added, and the resulting mixture was incubated at 37 °C for 10, 60, 120, and 180 min. The reactions were terminated by the addition of four volumes of ice-cold methanol, followed by vigorous mixing. The samples were left at −20 °C for 30 min and then stored at 4 °C overnight. The next day, samples were centrifuged, and supernatants were diluted with four volumes of 30% methanol in water. Zero time points were prepared by adding ice-cold methanol to the mixture of compounds and cofactors prior to the addition of microsomes. The samples were then analyzed using the Echo-MS system (SCIEX) with MRM transition monitoring, except for compound 3af, which was analyzed by LC–MS/MS as described in the plasma stability assay.
Background: Liver microsomes are a subcellular fraction often used to study metabolism.

A further data set can be described thus: Cytotoxicity assay, LX2. The class given is cell-based. As to conditions: human, LX2 cells, viability dye, flow cytometry. The method, then:
as §1, §2
Background: In flow cytometry, cells or beads pass a laser one at a time.

A short description of data set [3]: Microsomal stability assay, human liver microsomes. The format is in vitro ADME. As to conditions: pooled liver microsomes, pH 7.4, human liver microsomes 0.5 mg/mL, NADPH. On the procedure:
as §3

The subject of data set [4] is LPS-stimulated macrophage-like THP1 cells (TNFα secretion). Kind of data set: Anti-inflammatory potential: TNFα secretion in LPS-stimulated PMA-differentiated THP1 cells. The format is cell-based, human. The following applies: (+)PMA THP1, 1 μg/mL LPS, 24 h, up to 300 μM. On the procedure: Cells were differentiated overnight into macrophage-like phenotypes by treatment with 10 ng/mL PMA and subsequently stimulated with 1 μg/mL lipopolysaccharide (LPS; Invitrogen, Thermo Fisher Scientific) to induce a proinflammatory response. […] After 24 h of LPS and compound exposure, cell culture supernatants were collected and analyzed for TNFα levels using a bead-based multiplex immunoassay (ProcartaPlex Human Basic Kit and TNFα Human ProcartaPlex Simplex Kit, both Invitrogen, Thermo Fisher Scientific). Flow cytometry readout was used as previously described. TNFα concentrations were calculated using a standard curve generated in GraphPad Prism 10 (GraphPad Software, San Diego, CA). Cells or beads from screening assays prepared for flow cytometry were analyzed by the CytoFlex S instrument (Beckman Coulter). Data acquisition was performed using CytExpert software (v2.5, Beckman Coulter). Debris was excluded by forward and side scatter gating, followed by doublet exclusion. Data were analyzed using FlowJo software (v10, BD Biosciences).

Each structure is given as a SMILES string.

As a reminder, the CC50 is the concentration that lowers cell viability or growth by half. Read a high CC50 as better tolerance by the cells. In general, microsomal CLint refers to the capacity of the preparation to metabolise the compound, expressed as a volume cleared per time. The low end stands for greater metabolic stability, the high end for faster metabolism.

Take `CC(=O)N(c1cc(C(=O)O)cc2[nH]ccc12)[C@@H]1O[C@H](CO)[C@@H](S[C@@H]2O[C@H](CO)[C@H](O)[C@H](n3cc(-c4cccc(F)c4)nn3)[C@H]2O)[C@H](O)[C@H]1O` [Compound 11, N-[4-S-(3-Deoxy-3-(4-(3-fluorophenyl)-1H-1,2,3-triazol-1-yl)-β-D-galactopyranosyl)-4-thio-β-D-glucopyranosyl]-N-(6-carboxy-1H-indol-4-yl)acetamide]: the CC50 at 24 h was greater than 300 µM in data set [1] and greater than 300 µM in “Cytotoxicity assay, LX2”. Moreover, the intrinsic clearance (microsomal CLint) at 10 μM in data set [2] and in data set [3] was less than 2 µL/min/mg in each case. Besides, the “LPS-induced TNFα secretion” value in data set [4] was “no suppression”.

The values are drawn from PMC12670426 (Journal of Medicinal Chemistry, 2025).
